Data as given in patent US20220213070A1, “COMPOUNDS INHIBITING TDG ACTIVITY” (EPITAS BIOSCIENCES (SHANGHAI) CO., LTD., priority 2019, published 2022).

Key:
TDG [1] = biological target: T1, TDG (Homo sapiens, UniProt Q13569); test: Inhibition of TDG mismatch repair activity (fluorescent G·U double-stranded DNA probe T1-T2); format: biochemical; details: TDG 100 nM/L, preincubated with compound 37° C. 30 minutes; probe 30 nM; read-out: Inhibitory activity on TDG mismatch repair IC50
Source text: 14.1 Experimental Determination of Compound's Inhibitory Rate on TDG Mismatch Repair Activity
(1) A double-stranded DNA probe T1-T2 containing uracil bases was synthesized. The nucleotide sequence of the T1 chain was: 5′-FAM-TAAUGTGAATGGAGCTGAAAT-biotin-3′; The nucleotide sequence of the T2 chain was 5′-ATTTCAGCTCCATTCACGTTA-3′. Using PCR annealing program, the T1 strand and T2 strand were complementary to form a double-stranded DNA probe T1-T2.
(2) The reaction system and steps for each well of a 96-well plate were as follows: a. TDG (100 nM/L) was mixed with different concentrations of compounds, and the mixture was incubated at 37° C. for 30 minutes. The composition of the reaction buffer was: 20 mM HEPES pH7.5, 100 mM NaCl, 0.2 mM EDTA, 2.5 mM MgCl2; b. The double-stranded DNA probe T1-T2 was added to the mixture to obtain a final volume of 100 μL, with a concentration of 30 nM, and the mixture was incubated at 25° C. for 30 min; c. 1 μL of streptavidin magnetic beads were added to the reaction solution and fully bound the biotin-labeled DNA for 1 hour; d. NaOH was added to the reaction solution to a final concentration of 200 mM, and the mixture was incubated at room temperature for 30 minutes; e. Under the action of a magnetic stand the streptavidin magnetic beads were adsorbed to the tube wall, the supernatant was transferred to a new 96-well plate, and placed in a Tecan microplate reader for fluorescence measurement. The parameter settings were: excitation wavelength 485 nm; emission wavelength 520 nm. A linear curve between fluorescence intensity and TDG concentration was constructed, R^2=0.9968, and the linear range was 0-50 nM/L;
According to the biological method described in this example, the selected compounds of the present invention were analyzed, and the results are shown in Table 1. Among them, “++” in Table 1 refers to the inhibitory activity for TDG mismatch repair with IC50≤5 μM; “+” refers to the inhibitory activity for TDG mismatch repair with IC50>5 μM.

TDG [2] = biological target: T1, TDG; test: TDG inhibitory activity of compounds in cells (caC-cmv-firefly luciferase reporter, HEK 293T TDG KO cells transfected with pCDNA4-TDG); format: cell-based; details: read-out: Inhibition rate on TDG activity
Description: Experimental Determination of TDG Inhibitory Activity of Compounds in Cells
The operation steps of this example are as follows:
(1) Preparation of Methylation Reporter Plasmid:
(a) SAM with a stock solution concentration of 32 mM was diluted with ultrapure water to 1600 μM;
(b) The reaction system was prepared according to the following ratio: 30 μl ultrapure water, 5 μl 10×NEBuffer 2, 5 μl diluted SAM, 1 μg pCpGL-CMV-firefly plasmid, 1 μl SssI methylase (4 U/μl); 50 μl in total, the reaction was carried out at 37° C. for 2 hours;
(c) The mixture was heated at 65° C. for 20 minutes. Then 0.2% SDS was added, the reaction was carried out at 80° C. for 10 min; and then 1 μl Proteinase K was added, the reaction was carried out at 50° C. for 1 h;
(d) The methylated plasmid was recovered with Dr. GenTLE® sedimentation aid (TAKARA).
(2) Preparation of 5fC/5caC pCpGL-CMV-Firefly Reporter Plasmid
(a) The following 10× reaction system was prepared:
(b) The reaction system was prepared according to the following ratio:
(c) The reaction was carried out at 37° C. for one hour;
(d) 24 μg Tet1 protein was added for the second time and the reaction was continued for one hour;
(e) SDS was added to a final concentration of 0.5%, 80° C., 10 minutes, then 1 μl Proteinase K was added, 55° C. overnight.
(f) The treated caC-cmv-firefly plasmid was recovered with Dr. GenTLE® sedimentation aid (TAKARA) and was quantified.
(3) Using the Luciferase Activity Assay Method to Detect the Inhibitory Rate of Small Molecule Compounds on Intracellular TDG Enzyme Activity
In a 96-well plate, the reaction system and operation flow of each well were as follows:
(a) 1 ng caC-cmv-firefly, Ing pCpGL-CMV-Relina and 150 ng pCDNA4-TDG or 150 ng pCDNA4-myc plasmid, were diluted to 75 ul Opti-MEM, mixed well and allowed to stand still for 5 minutes;
(b) 2 ul transfection reagent (Hieff Trans™ Liposomal transfection Reagent (0.5 ul/well, YEAEEN, Cat #40802)) was diluted in 100 ul Opti-MEM, mixed well and allowed to stand still for 5 minutes;
(c) 75 ul of (a) and (b) were mixed respectively, and allowed to stand still at room temperature for 20 minutes;
(d) HEK 293T TDG KO cells were digested with trypsin, the cells were collected and counted, and the suspension cell concentration was adjusted to 4×10^5/ml;
(e) 50 ul of the mixture (c) was added to each well, and at the same time 100 ul of the diluted cell suspension was added to the same well, and they were mixed well.
(f) After the cells adhering to the wall, different concentrations of small molecule compounds to be tested were added to each well.
(g) Incubation was performed in a 37° C. CO2 incubator for 72 hours. The supernatant was removed and the cells were quickly freezed at −80° C.
(h) Before detecting the luciferase activity, the cells to be tested were removed from −80° C. and allowed to stand still at room temperature for 30 minutes. Following the instructions of Dual-Glo® Luciferase Reagent (PROMEGA), the firefly fluorescence value and Renilla fluorescence value of each well were detected.
(i) The firefly fluorescence value was divided with the Renilla fluorescence value of each well; 96-well plate Z′ and experimental window was calculated by the ratio of transfected caC-cmv-firefly, pCpGL-CMV-Relina, pCDNA4-TDG plasmid mixture plus DMSO experimental group to transfected caC-cmv-firefly, pCpGL-CMV-Relina, pCDNA4-myc plasmid mixture plus DMSO experimental group, and the relative enzyme activity inhibition rate of each compound was calculated.
According to the biological method described in this example, the selected compounds of the present invention were analyzed, and the results are shown in Table 2. Among them, “+” in Table 2 refers to the compound's TDG inhibitory activity at a concentration of 10 μM≤25%; “++” refers to the compound's TDG inhibitory activity at a concentration of 10 μM>25%.

[3] = tested on: Lung cancer cell line Calu-1; test: Inhibition of the growth of Calu-1 cells (CellTiter-Glo, 72 hours); format: cell-based; details: Homo sapiens, 72 hours of culturing, read-out: Inhibitory activity on alu-1 cell growth IC50
Description: 14.2 Experimental Determination of Compound's Inhibitory Rate on the Growth of Calu-1 Cells
Lung cancer cell line Calu-1 was cultured in 90% McCoy's 5A medium (BI, 01-075-1ACS)+10% fetal bovine serum (Gibco, 10270106), placed in a CO2 incubator (37° C., 5% CO2, 95% air) for culturing. Calu-1 cells were digested with trypsin (Gibco, 12604-021) and seeded in a 384-well plate at a density of 500 cells per well. The medium was 50 μL and it was cultured overnight at 37° C. in an incubator. On the next day, different concentrations of test compounds were added, and the final concentration of DMSO was 0.1%. After 72 hours of culturing, the cells were taken out for test. The cell culture medium from the 384-well plate to be tested was removed, and fresh culture medium premixed with CTG was immediately added: the ratio of the culture medium to CellTiter-Glo® 2.0 reagent (Promega, G9243) was 2:1, 30 ul was added to each well. The plate was shaken at room temperature for 20 minutes, and then a multi-function plate reader (TECAN, Infinite 200 Pro) was used according to the reagent instructions to determine the cell survival.
According to the biological method described in this example, the selected compounds of the present invention were analyzed, and the results are shown in Table 1. Among them, “++” in Table 1 refers to the inhibitory activity on the growth of calu-1 cells with IC50≤5 μM; “+” refers to the inhibitory activity on the growth of calu-1 cells with IC50>5 μM.

T1 sequence (Q13569 whole entry): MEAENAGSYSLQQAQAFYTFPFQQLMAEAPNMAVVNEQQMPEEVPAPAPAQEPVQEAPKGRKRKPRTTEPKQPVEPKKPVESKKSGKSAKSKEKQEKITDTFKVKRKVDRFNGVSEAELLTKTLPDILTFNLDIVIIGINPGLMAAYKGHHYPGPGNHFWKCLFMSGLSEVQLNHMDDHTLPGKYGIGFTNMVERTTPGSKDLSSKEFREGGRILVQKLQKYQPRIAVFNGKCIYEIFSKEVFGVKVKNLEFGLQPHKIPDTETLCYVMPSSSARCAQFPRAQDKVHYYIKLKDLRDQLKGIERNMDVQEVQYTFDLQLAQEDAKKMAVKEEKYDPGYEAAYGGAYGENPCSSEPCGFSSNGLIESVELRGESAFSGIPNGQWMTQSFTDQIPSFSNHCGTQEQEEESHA

SMILES	IC50 (TDG [1]) [µM]	inhibition at 10 µM (TDG [2]) [%]	IC50 [3] [µM]
O=C(CCn1cc(-c2ccccc2)cn1)c1ccc2c(c1)OCCO2 [Compound 28, 1-(2,3-dihydrobenzo[b][1,4]dioxin-6-yl)-3-(4-phenyl-1H-pyrazol-1-yl)propan-1-one]	> 5	< 25	> 5
O=C(CCCN1Cc2ccccc2C1)c1ccc2c(c1)OCCO2 [Compound 31, 1-(2,3-dihydrobenzo[b][1,4]dioxin-6-yl)-4-(isoindolin-2-yl)butan-1-one]	> 5	< 25	> 5
O=C(CCn1ccc(-c2ccc(F)cc2)cc1=O)c1ccc2c(c1)OCCO2 [Compound 18, 1-(3-(2,3-dihydrobenzo[b][1,4]dioxin-6-yl)-3-oxopropyl)-4-(4-fluorophenyl)pyridine-2(1H)-one]	≤ 5	> 25	> 5
C=CC(=O)c1ccc2c(c1)OCCO2 [Compound 42, 1-(2,3-dihydrobenzo[b][1,4]dioxin-6-yl)prop-2-en-1-one]	≤ 5	< 25	≤ 5
O=C(CCN1Cc2ccccc2C1)c1ccc2c(c1)CCCN2 [Compound 30, 3-(isoindolin-2-yl)-1-(1,2,3,4-tetrahydroquinolin-6-yl)propan-1-one]	> 5	< 25	> 5
O=C(CCN1Cc2ccccc2C1)c1ccc2c(c1)SCCO2 [Compound 37, 1-(2,3-dihydrobenzo[b][1,4]oxathion-6-yl)-3-(isoindolin-2-yl)propan-1-one]	> 5	< 25	> 5
CC(C)(C)OC(=O)NCC1(O)CN(CCC(=O)c2ccc3c(c2)OCCO3)C1 [Compound 23, tert-butyl ((1-(3-(2,3-dihydrobenzo[b][1,4]dioxin-6-yl)-3-oxopropyl)-3-hydroxyazetidin-3-yl)methyl)carbamate]	> 5	< 25	> 5
O=C(CCN1CCC(c2ccc([N+](=O)[O-])cc2)C1)c1ccc2c(c1)OCCO2 (centres unmarked) [Compound 46, 1-(2,3-dihydrobenzo[b][1,4]dioxin-6-yl)-3-(3-(4-nitrophenyl)pyrrolidin-1-yl)propan-1-one]	≤ 5	< 25	≤ 5
O=C(CCN1Cc2ccccc2C1)c1ccc2c(c1)OCCO2 [Compound 1, 1-(2,3-dihydrobenzo[b][1,4]dioxin-6-yl)-3-(isoindolin-2-yl)propan-1-one]	≤ 5	> 25	≤ 5
O=C(CCN1CCC(c2ccc(Cl)cc2)C1)c1ccc2c(c1)OCCO2 (centres unmarked) [Compound 49, 3-(3-(4-chlorophenyl)pyrrolidin-1-yl)-1-(2,3-dihydrobenzo[b][1,4]dioxin-6-yl)propan-1-one]	≤ 5	< 25	≤ 5
O=C1CCN(CCC(=O)c2ccc3c(c2)OCCO3)C1 [Compound 17, 1-(3-(2,3-dihydrobenzo[b][1,4]dioxin-6-yl)-3-oxopropyl)pyrrolidin-3-one]	≤ 5	< 25	> 5
O=C(CCN1CCCC1)c1ccc2c(c1)OCCO2 [Compound 16, 1-(2,3-dihydrobenzo[b][1,4]dioxin-6-yl)-3-(pyrrolidin-1-yl)propan-1-one]	≤ 5	< 25	> 5
O=C(CCN1Cc2ccccc2C1)c1ccc2c(c1)OCO2 [Compound 35, 1-(benzo[d][1,3]dioxo1-5-yl)-3-(isoindolin-2-yl)propan-1-one]	≤ 5	< 25	≤ 5
O=C(CCN1CCC(c2ccc(C(F)(F)F)cc2)C1)c1ccc2c(c1)OCCO2 (centres unmarked) [Compound 45, 1-(2,3-dihydrobenzo[b][1,4]dioxin-6-yl)-3-(3-(4-(trifluoromethyl)phenyl)pyrrolidine-1-yl)propan-1-one]	> 5	< 25	≤ 5
O=C(CCN1Cc2ccc(Cl)cc2C1)c1ccc2c(c1)OCCO2 [Compound 4, 3-(5-chloroisoindolin-2-yl)-1-(2,3-dihydrobenzo[b][1,4]dioxin-6-yl)propan-1-one]	≤ 5	< 25	> 5
O=C(CCN1C(=O)c2ccccc2C1=O)c1ccc2c(c1)OCCO2 [Compound 12, 2-(3-(2,3-dihydrobenzo[b][1,4]dioxin-6-yl)-3-oxopropyl)isoindole-1,3-dione]	> 5	< 25	> 5
Cc1ccc(C2CCN(CCC(=O)c3ccc4c(c3)OCCO4)C2)cc1 (centres unmarked) [Compound 48, 1-(2,3-dihydrobenzo[b][1,4]dioxin-6-yl)-3-(3-(p-tolyl)pyrrolidin-1-yl)propan-1-one]	≤ 5		≤ 5
